Measurements: patent publication US20110052494A1, “H-ANTIGEN BINDING POLYPEPTIDES AND METHODS OF USE” (priority 2008, published 2011)

Legend:
[1] = test system: LLY (Streptococcus mitis SK597 lectinolysin, SEQ ID NO:1) on human donor 1 platelets; test: Block of the lectin-dependent enhancement of LLY pore formation (calcein release from platelets); format: cell-based; details: high responder platelets pretreated
Description: Calcein release assay. PRP was diluted 1:100 with HEPES/saline assay buffer (2 mM CaCl2, 1 mM MgCl2, 150 mM NaCl, 10 mM HEPES, pH 7.5) and incubated with 2 μM calcein-acetoxy methyl ester (Molecular Probes, Eugene, Oreg.) for 10 minutes at room temperature as previously described (17). LLY (0.7-2.9 nM) was incubated with the calcein-loaded PRP for 10 minutes at room temperature. Samples were then diluted with HEPES/saline and analyzed on a FACSCalibur flow cytometer (Becton-Dickinson) using settings as described previously (17). Cells losing calcein fluorescence were quantified as a percentage of total platelets.
The EC50 values for LLY- and LLY^CDC-dependent calcein release were calculated using a nonlinear sigmoidal dose-response curve fit of the data (Prism Software).
We hypothesized that enhancement of LLY activity resulted from a glycan-dependent interaction of the lectin domain after monomer bound the cell surface. If correct then preincubating platelets with LLY^Lec should prevent interaction of the lectin domain of LLY with surface glycans and block the enhancement of LLY activity on the highly sensitive donor 1 platelets.

[2] = target: T1, LLY^Lec-Q190C (isolated fucolectin domain of Streptococcus mitis SK597 lectinolysin, SEQ ID NO:3, Q190C = position 154 of the domain) (Streptococcus sp. SK597, UniProt B3UZR3, Q190C); test: Glycan microarray binding, Alexa-488 labeled LLY^Lec; details: for glycan microarray binding at the lowest LLY^Lec concentration: 5.6 nM LLY^Lec, determinants lacking the difucosylated structures
T1 construct: Alexa-488 maleimide on Cys-190; E. coli
Description: FIGS. 7A & 7B. LLY^Lec preferentially binds Le^y and Le^b glycans. Version 2.1 of the printed glycan microarray (Consortium for Functional Glycomics) was probed with Alexa-488 labeled LLY^Lec-Q190C at 560 nM, 56 nM and 5.6 nM. […] The average RFU (from 4-6 analysis with high and low values eliminated) for each bound glycan was determined as described in the Methods and the % CV (100×Standard Deviation÷Average) provides an indication of the precision of each measurement. […] AVG RFU is average relative fluorescence units; SP, spacer arm or linker between glycan and surface of the array; SP0, —CH2CH2NH2; and SP8, CH2CH2CH2NH2. Circles; galactose, squares; GalNac, triangles, fucose, squares; GlcNAc.
Chemical modification of LLY and its derivatives with sulfhydryl-specific fluorescent probes. Cysteine derivatives of LLY and LLY^Lec (i.e., the 162 amino acid fucolectin domain) were modified with Alexa Fluor 488 C5-maleimide (Invitrogen) via the sulfhydryl group as previously described (12). Modified protein stocks were adjusted to 10% (v/v) sterile glycerol, quick frozen in liquid nitrogen, and stored at −80° C. Proteins were labeled at an efficiency of 75% or greater.
Glycan microarray binding assay and scanning. Glycan microarrays were prepared as described previously (33,37) and obtained from the NIH/NIGMS-funded Consortium for Functional Glycomics (see http://www.functionalglycomics.org/static/index.shtml). Before assay, the slides were rehydrated for 5 minutes in TSM buffer (20 mM Tris-HCL, 150 mM sodium chloride (NaCl), 0.2 mM calcium chloride (CaCl2) and 0.2 mM magnesium chloride (MgCl2). Alexa-488-labeled LLY^Q190C and its derivatives were used in the binding assay (560-640 nM), and the bound proteins were detected directly via the fluorescent tag.
The slides were scanned with a Perkin Elmer ProScanarray MicroArray Scanner (Waltham, Mass.) using an excitation wavelength of 488 nm. ImaGene software (BioDiscovery, Inc., El Segundo, Calif.) was used to quantify fluorescence. The data are reported as average relative fluorescence units (RFU) from 4 of the 6 replicates (after removal of the highest and lowest values) for each glycan represented on the array. Versions 2.1 and 3.0 of the printed array were used in these studies and a complete list of glycans printed on these arrays can be found at the Functional Glycomics Gateway website:
Purified LLY^Lec-Q190C was fluorescently labeled with Alexa-488 and used to probe the glycan microarray. […] The AAA glycan binding site contains three key residues that make polar contacts with the fucose molecule. The Nε of His-52 contacts O-5 of the fucose ring whereas the guanidinium groups of Arg-79 and Arg-86 make contact with 3-OH and 4-OH ring hydroxyls of fucose (10). […]

C[C@@H]1OC(O)[C@@H](O)[C@H](O)[C@@H]1O (stereo partly drawn) [fucose, L-fucose]
effect of pretreatment on the high/low responder EC50 difference [1]: This difference was abolished

Fucα1-2Galβ [H-antigen]
glycan microarray binding at the lowest LLY^Lec concentration [2]: binds weakly or not at all
glycan microarray ligand preference ([2]; printed glycan microarray, overall conclusion): weaker ligand

GaNAclα1-3[Fucα1-2]Galβ1-3/4R [blood group A]
glycan microarray binding at the lowest LLY^Lec concentration [2]: binds weakly or not at all

Galα1-3[Fucα1-2]Galβ1-3/4R [blood group B]
glycan microarray binding at the lowest LLY^Lec concentration [2]: binds weakly or not at all
